What was measured:
[1] = tested on: SNL model rats; assay: Analgesic effect in a fifth lumbar nerve ligation (SNL) model, von Frey test; type: in vivo, Wistar rats; settings: for extension range of reaction thresholds ± standard error (50% paw withdrawal threshold, after minus before administration): about 10 mg formulation on footpad for 1 hour, evaluated another 1 hour after removal, n=9; for extension range of reaction thresholds compared with the vehicle group: about 10 mg formulation on footpad, versus vehicle (Control example 1)
Method: Test 2. […] A SNL model was prepared by a method of Kim and Chung (Pain 50, 355-363, 1992) with partial modification thereof. Specifically, male 5-week-old Wistar rats were anesthetized with pentobarbital and isoflurane inhalation, and under anesthesia, an unilateral fifth lumber nerve was exposed. Then, the fifth lumber nerve was ligated with a silk surgical suture to obtain a SNL model. Evaluation of the analgesic effect was conducted with the von Frey test. Specifically, an animal was poked with a von Frey hair on a footpad in a hind limb of an animal at the side of operation. Reaction thresholds (50% paw withdrawal thresholds) to mechanical stimulation were calculated with a formula according to a method of Chaplan (Journal of Neuroscience Methods 53, 55-63, 1994). […] Reaction thresholds were measured on one and two days before the evaluation of test compounds, and an average of the measured values was determined as the reaction threshold before administration of test compounds. […] One day after the division into groups, test compounds were administered. […] Administration of a test compound was carried out by application of about 10 mg of each formulation on a medical adhesive film, and attachment of the film to a footpad of a SNL rat at the side of operation under anesthesia with isoflurane inhalation. One hour after the application, the film was removed, and another one hour after, reaction thresholds after administration of the test compound were evaluated. After the evaluation, blood was immediately collected from a cervical vein, and the concentration of the test compound in plasma was measured. The efficacy of the analgesic effect of a test compound is shown as an extension range of reaction thresholds±standard error (g) by the following formula: (Reaction threshold after administration of a test compound)−(Reaction threshold before administration of a test compound).

[2] = Concentration of the test compound in plasma after evaluation in SNL rats; type: in vivo; settings: Wistar, rat, topical about 10 mg formulation, blood collected immediately after evaluation (2 hours after application)
Method: One day after the division into groups, test compounds were administered. […] Administration of a test compound was carried out by application of about 10 mg of each formulation on a medical adhesive film, and attachment of the film to a footpad of a SNL rat at the side of operation under anesthesia with isoflurane inhalation. One hour after the application, the film was removed, and another one hour after, reaction thresholds after administration of the test compound were evaluated. After the evaluation, blood was immediately collected from a cervical vein, and the concentration of the test compound in plasma was measured.

[3] = tested on: ECG (electrocardiogram) parameters of guinea pigs; assay: Safety pharmacology study of the cardiovascular system: ECG parameters under anesthesia; type: in vivo; settings: for effect on the cardiovascular system / ECG parameters: guinea pigs under anesthesia, continuous intravenous administration
Method: Test 3. […] Evaluation of ECG of guinea pigs was conducted under anesthesia with intra-abdominal administration of a mixed solution of urethane and α-chloralose. Guinea pigs under anesthesia were retained in a supine position, and a right cervical vein was exposed to […] cannula. […] QRS interval and QTc interval are shown as rates of change (%) by similar equations.

[4] = Concentration in plasma during continuous intravenous administration in guinea pigs; type: in vivo; settings: dose of 30 mg/kg continuous intravenous for 30 minutes
Method: Evaluation of ECG of guinea pigs was conducted under anesthesia with intra-abdominal administration of a mixed solution of urethane and α-chloralose. Guinea pigs under anesthesia were retained in a supine position, and a right cervical vein was exposed to […] cannula. […] QRS interval and QTc interval are shown as rates of change (%) by similar equations.

[5] = 30 mg/kg continuous intravenous for 30 minutes, at 30 minutes after administration
[6] = 15 mg/kg continuous intravenous for 30 minutes, at 30 minutes after administration

Which results are given for `CCn1c(CN[C@@H](C)C(N)=O)nc2ccc(Oc3ccc(C)cc3)cc21` [Compound A, N^2-{[1-ethyl-6-(4-methylphenoxy)-1H-benzimidazol-2-yl]methyl}-L-alaninamide]?
difference between extension ranges of reaction thresholds of Compound A and lidocaine groups ([1]; Example 1 ointment versus 5% lidocaine ointment): no statistically significant difference; extension range of reaction thresholds ± standard error (50% paw withdrawal threshold, after minus before administration) [1]: 2.2 ± 0.56 g; extension range of reaction thresholds compared with the vehicle group [1]: statistically significantly increased; concentration at 2 h [2]: 25.2 ng/mL; rates of change of each ECG parameter compared with the vehicle group ([3]; 30 mg/kg continuous intravenous for 30 minutes): no statistically significant difference; PR interval rate of change (prolonged) [3, 5]: 22.3%; QRS interval rate of change (prolonged) [3, 5]: 10.3%; QTc interval rate of change (prolonged) [3, 5]: 9.0%; plasma concentration without effect on the cardiovascular system relative to that at which the analgesic effect appeared ([3]; guinea pig maximum plasma concentration at 30 mg/kg versus SNL rat plasma concentration): about 670 times; effect on the cardiovascular system / ECG parameters [3]: not observed until the dose rose to 30 mg/kg; maximum concentration in plasma [4]: 16.9 µg/mL

For `CCN(CC)CC(=O)Nc1c(C)cccc1C` [lidocaine, reference compound], which “extension range of reaction thresholds ± standard error (50% paw withdrawal threshold, after minus before administration)” value [1] is on record?
The value was 4.1 ± 0.62 g.

What about the “extension range of reaction thresholds compared with the vehicle group” value [1] of the same compound?
Its value is “statistically significantly increased”.

And the “PR interval rate of change (prolonged)” value [3, 6]?
Its value is 35.1%.

What about the “QRS interval rate of change (prolonged)” value [3, 6] of the same compound?
Its value is 44.5%.

What about the “effect on the cardiovascular system / ECG parameters” value [3] of the same compound?
Its value is “observed at a dose of 15 mg/kg”.

Reference: patent publication US11925621B2, “Medicinal preparation for external use” (Sumitomo Pharma Co., Ltd., priority 2018, dated 2024)
